“Also recorded” adds a separate entry of the source.
Tested on: CYP3A4
Test: CYP3A4 induction by 6β-OH-cortisol/cortisol ratio in urine
Format: in vivo, human
Conditions: 50 mg, 100 mg and 200/150 mg once daily; days -1 and 13
Protocol: The potential of CYP3A4 induction was assessed by means of the ratio of 6β‐OH‐cortisol to cortisol in urine.[10], [11], [12], [13], [14] Cortisol concentrations in urine were determined by using a radioimmunoassay method based on competition between labeled antigens and antigens on the specific sites of the antiserum coated on the tubes. At the end of the incubation period, the liquid in the tubes was removed by aspiration and the radioactivity (^125I‐cortisol) was measured using a gamma counter (Packard Cobra II auto‐gamma counter; Packard Instrument Co Inc, Meriden, Connecticut). […] The best curve was determined by the polynomial second‐order equation. The limit of quantification of the cortisol assay for the urine samples was set at 10 ng/mL.
6β‐OH‐cortisol concentrations in urine were determined by using a 2‐step, quantitative competitive enzyme immunoassay technique. […] The calibration equation was computed using SoftMax Pro software (Molecular Devices, Sunnyvale, California) by plotting the log of 6β‐OH‐cortisol concentrations versus the A/Ao (when A was standard or sample 6β‐OH‐cortisol absorbance and Ao was the standard 0 absorbance). The best line was determined by using the 4‐parameter logistic model. The limit of quantification of the 6β‐OH‐cortisol assay for the urine samples was set at 50 pg/mL. […]

## O=c1nc(OC[C@@H]2COCCO2)cc2n1CCc1cc(C#CC3CC3)ccc1-2 [GLPG1205, 9‐cyclopropylethynyl‐2‐((S)‐1‐[1,4]dioxan‐2‐ylmethoxy)‐6,7‐dihydropyrimido[6,1‐a]isoquinolin‐4‐one]
  6β‐OH‐cortisol/cortisol ratio in urine: No significant day and dose effects; also recorded: did not impact

Reference: article PMC8453901, “GLPG1205, a GPR84 Modulator: Safety, Pharmacokinetics, and Pharmacodynamics in Healthy Subjects” (Clinical Pharmacology in Drug Development, 2021)
